Test results as given in patent US12195427B2, “MASP-2 inhibitors and methods of use” (priority 2018, dated 2025).
Values belong to the compound of their own block, whether it stands above or below them.

Target: MASP-2 CCP2-SP (Homo sapiens (Human), UniProt O00187)
Assay: MASP-2 co-crystallization, X-ray crystallography and structure analysis (H-bonds, van der Waals contacts);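 as to Ligand-pharmacophore element distance, pharmacophore element C2: distance from averaged pharmacophore element to bound ligand; missing value means element absent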;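 as to Ligand-pharmacophore element distance, pharmacophore element C3: distance from averaged pharmacophore element to bound ligand; missing value means element absent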;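 as to Ligand-pharmacophore element distance, pharmacophore element C4: distance from averaged pharmacophore element to bound ligand; missing value means element absent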;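 as to Ligand-pharmacophore element distance, pharmacophore element C5: distance from averaged pharmacophore element to bound ligand; missing value means element absent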
Set-up: van der Waals contact distance, MASP-2 HIS 483 atom CD2 / van der Waals contact distance, MASP-2 HIS 483 atom NE2 / van der Waals contact distance, SER 654 C to compound atom / van der Waals contact distance, SER 654 O to compound atom / van der Waals contact distance, TRP 655 C to compound atom / van der Waals contact distance, MASP-2 GLY 528 atom CA / van der Waals contact distance TRP 655 atom CZ3 / van der Waals contact distance TRP 655 atom N / van der Waals contact distance TRP 655 atom CE3 / van der Waals contact distance GLY 656 atom C / van der Waals contact distance GLY 656 atom CA / van der Waals contact distance GLY 656 atom O / van der Waals contact distance, MASP-2 TYR 607 atom CD1 / van der Waals contact distance, MASP-2 PRO 606 atom O / d(C3,CA1) / d(CA1,N1)2 / d(H4,O1) / d(H4,O2) / d(O1,O2) / d(CA1,O2) / d(CA6,O1) / d(CA6,O2) / d(CA1,C5) / d(O2,H3) / d(N2,C2) / d(CA5,N2) / d(N2,C4) / d(N2,C6) / d(N2,CA3) / d(N2,O3) / d(O4,H2): unit not given beside the values
Settings: for H-bond distance to MASP-2 GLY 656 atom N: GLY 656 N; for H-bond distance to MASP-2 SER 628 atom O: SER 628 O; for H-bond distance to MASP-2 SER 654 atom O: SER 654 O; for H-bond distance to MASP-2 SER 657 atom O: SER 657 O; for Ligand-pharmacophore element distance, pharmacophore element C2 / Ligand-pharmacophore element distance, pharmacophore element C3 / Ligand-pharmacophore element distance, pharmacophore element C4 / Ligand-pharmacophore element distance, pharmacophore element C5 / Ligand-pharmacophore element distance, pharmacophore element C6 / Ligand-pharmacophore element distance, pharmacophore element C7 / Ligand-pharmacophore element distance, pharmacophore element CA1 / Ligand-pharmacophore element distance, pharmacophore element CA2 / Ligand-pharmacophore element distance, pharmacophore element CA3 / Ligand-pharmacophore element distance, pharmacophore element CA4 / Ligand-pharmacophore element distance, pharmacophore element CA5 / Ligand-pharmacophore element distance, pharmacophore element CA6: Table A4-1; for Pharmacophore protein distance to MET_658 (first MET_658 column) / Pharmacophore protein distance to MET_658 (second MET_658 column) / Pharmacophore protein distance to GLY_528 / Pharmacophore protein distance to PHE_529 / Pharmacophore protein distance to PRO_608 / Pharmacophore protein distance to SER_611 / Pharmacophore protein distance to TRP_655: Table A8-6, nearest protein atom in cell to the left; for Pharmacophore protein distance to MET_658 (first MET_658 column): 6th residue column; for Pharmacophore protein distance to MET_658 (second MET_658 column): 9th residue column; for Pharmacophore protein distance to TRP_655: pharmacophore elements C6, CA3, O3, H1
Method in brief: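 Human MASP-2 CCP2-SP (± 6His) expressed in E. coli and crystallized; crystals soaked in crystallization solution containing inhibitor, cryoprotected with 20% glycerol or frozen directly. Synchrotron data at 1.0 wavelength; molecular replacement from 1Q3X, partial refinement; one ligand pose analyzed; LigPlot+ contacts may include H-bonds.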

[1] = Table A5-1 pharmacophore: distance between elements, S2/S1 region
[2] = Table A5-2 pharmacophore distance, S3/S4 region
[3] = Table A7-1, between pharmacophore elements of the bound compound
[4] = Table A7-2, between pharmacophore elements of the bound compound

Sequence of MASP-2 CCP2-SP (O00187 445-686): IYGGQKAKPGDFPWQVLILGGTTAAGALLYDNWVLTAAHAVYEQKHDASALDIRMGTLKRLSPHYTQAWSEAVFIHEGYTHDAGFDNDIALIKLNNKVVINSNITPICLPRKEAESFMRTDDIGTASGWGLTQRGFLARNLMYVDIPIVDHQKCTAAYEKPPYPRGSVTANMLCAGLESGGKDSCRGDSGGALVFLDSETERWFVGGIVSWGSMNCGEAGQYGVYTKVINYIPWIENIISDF
Sequence of MASP-2 CCP2-SP (O00187 364-432 partner): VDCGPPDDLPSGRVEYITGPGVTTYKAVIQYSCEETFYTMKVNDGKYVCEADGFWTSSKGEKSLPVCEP

SMILES: Cc1nc(N)ccc1CNC(=O)[C@H](C)NC(=O)[C@H]1C[C@H](Cc2cccc(Cl)c2)CN1 [compound 1328, (2R,4S)—N—((S)-1-(((6-amino-2-methylpyridin-3-yl)methyl)amino)-1-oxopropan-2-yl)-4-(3-chlorobenzyl)pyrrolidine-2-carboxamide]
- H-bond distance to MASP-2 GLY 656 atom N (Table A1 (H-Bonds)): 3.33
- H-bond distance to MASP-2 GLY 656 atom O (Table A1 (H-Bonds), GLY 656 O): 2.82
- H-bond distance to MASP-2 SER 628 atom O (Table A1 (H-Bonds)): 3.06
- H-bond distance to MASP-2 SER 654 atom O (Table A1 (H-Bonds)): 2.67
- H-bond distance to MASP-2 SER 657 atom O (Table A1 (H-Bonds)): 2.44
- van der Waals contact distance, MASP-2 HIS 483 atom CD2 (Table A2-1): 3.79
- van der Waals contact distance, MASP-2 HIS 483 atom NE2 (Table A2-1): 3.73
- van der Waals contact distance, MASP-2 PHE 529 atom CD1 (Table A2-3): 3.78
- van der Waals contact distance, SER 654 C to compound atom (Table A2-11): 3.62
- van der Waals contact distance, VAL 653 CG1 to compound atom (Table A2-11): 3.23
- van der Waals contact distance TRP 655 atom CE3 (Table A2-13, MASP-2 TRP 655 CE3, compound atom in line below): 3.49
- van der Waals contact distance TRP 655 atom CZ3 (Table A2-13, MASP-2 TRP 655 CZ3): 3.53

SMILES: C[C@H](NC(=O)[C@H](N)CCc1ccccc1)C(=O)NCc1ccc(N)nc1.Cl.Cl [1007_1]
- Ligand-pharmacophore element distance, pharmacophore element C2: 0
- Ligand-pharmacophore element distance, pharmacophore element C3: 0
- Ligand-pharmacophore element distance, pharmacophore element C4: 0
- Ligand-pharmacophore element distance, pharmacophore element C5: 0
- Ligand-pharmacophore element distance, pharmacophore element C6: 0
- Ligand-pharmacophore element distance, pharmacophore element C7: 0
- Ligand-pharmacophore element distance, pharmacophore element CA1: 0.35
- Ligand-pharmacophore element distance, pharmacophore element CA2: 0.77
- Ligand-pharmacophore element distance, pharmacophore element CA3: 0
- Ligand-pharmacophore element distance, pharmacophore element CA4: 0
- Ligand-pharmacophore element distance, pharmacophore element CA5: 0
- Ligand-pharmacophore element distance, pharmacophore element CA6: 0
- d(CA1,N1)2 [1]: 1.38
- d(CA1,O1) [1]: 4.39
- d(CA1,O2) [1]: 3.86
- d(H4,O1) [1]: 3.59
- d(H4,O2) [1]: 2.73
- d(O1,O2) [1]: 3.55
- d(N2,CA2) [2]: 6.02
- d(O2,H3) [2]: 4.41
- d(O2,N2) [2]: 2.79
- a(CA1, O1, O2) (Table A6-1 pharmacophore angle): 107.37
- a(O1, O2, H4) (Table A6-1 pharmacophore angle): 113.31
- a(N1, CA1, O1) b) (Table A6-1 pharmacophore angle, Methyl-amino-pyridine compounds): 174.46
- a(O1, O2, H3) (Table A6-2 pharmacophore angle): 146.43
- a(O1, O2, N2) (Table A6-2 pharmacophore angle): 138.95
- a(O2, N2, CA2) (Table A6-2 pharmacophore angle): 154.71
- Pharmacophore torsion angle a(H4, O1, O2, H3) [3]: 50.93
- Pharmacophore torsion angle a(H4, O1, O2, N2) [3]: 137.94
- Pharmacophore torsion angle a(N1, CA1, O1, H4) [3]: 39.07
- Pharmacophore torsion angle a(O1, H4, O2, CA1) [3]: −94.99
- Pharmacophore torsion angle a(O1, O2, N2, CA2) [4]: 128.23
- Pharmacophore protein distance to MET_658 (first MET_658 column): 2.61
- Pharmacophore protein distance to MET_658 (second MET_658 column): 3.25
- Pharmacophore protein distance to GLY_528: 3.76
- Pharmacophore protein distance to PHE_529: 3.15
- Pharmacophore protein distance to PRO_608: 3.15
- Pharmacophore protein distance to SER_611: 2.06
- Pharmacophore protein distance to TRP_655: 3.70

- H-bond distance to MASP-2 ASP 627 atom OD1 (Table A1 (H-Bonds), ASP 627 OD1): 2.79
- H-bond distance to MASP-2 GLN 665 atom OE1 (Table A1 (H-Bonds), GLN 665 OE1): 2.76
- H-bond distance to MASP-2 GLY 656 atom N (Table A1 (H-Bonds)): 2.93
- H-bond distance to MASP-2 SER 628 atom OG (Table A1 (H-Bonds), SER 628 OG): 2.86
- H-bond distance to MASP-2 SER 654 atom O (Table A1 (H-Bonds)): 2.84
- H-bond distance to MASP-2 SER 657 atom O (Table A1 (H-Bonds)): 2.92
- van der Waals contact distance, MASP-2 HIS 483 atom CD2 (Table A2-1): 3.75
- van der Waals contact distance, MASP-2 PHE 529 atom CE1 (Table A2-3): 3.52
- van der Waals contact distance, MASP-2 PRO 606 atom C (Table A2-4): 3.86
- van der Waals contact distance, MASP-2 amino acid atom to compound atom (Table A2-9 second part, ARG 630, AA atoms N, NE, NH1): 3.69
- van der Waals contact distance, VAL 653 CG1 to compound atom (Table A2-11): 3.9
- van der Waals contact distance GLY 656 atom C (Table A2-13, MASP-2 GLY 656 C): 3.54
- Ligand-pharmacophore element distance, pharmacophore element C2: 3.15
- Ligand-pharmacophore element distance, pharmacophore element C3: 0
- Ligand-pharmacophore element distance, pharmacophore element C4: 0
- Ligand-pharmacophore element distance, pharmacophore element C5: 0
- Ligand-pharmacophore element distance, pharmacophore element C6: 0
- Ligand-pharmacophore element distance, pharmacophore element C7: 0
- Ligand-pharmacophore element distance, pharmacophore element CA1: 0.35
- Ligand-pharmacophore element distance, pharmacophore element CA2: 0
- Ligand-pharmacophore element distance, pharmacophore element CA3: 0
- Ligand-pharmacophore element distance, pharmacophore element CA4: 0
- Ligand-pharmacophore element distance, pharmacophore element CA5: 0.67
- Ligand-pharmacophore element distance, pharmacophore element CA6: 0
- Ligand-pharmacophore element distance, pharmacophore element H1 (Table A4-2, element H1): 0
- Ligand-pharmacophore element distance, pharmacophore element H2 (Table A4-2, element H2): 0
- Ligand-pharmacophore element distance, pharmacophore element H3 (Table A4-2, element H3): 1.34
- Ligand-pharmacophore element distance, pharmacophore element H4 (Table A4-2, element H4): 3.79
- Ligand-pharmacophore element distance, pharmacophore element N1 (Table A4-2, element N1): 1.8
- Ligand-pharmacophore element distance, pharmacophore element N2 (Table A4-2, element N2): 1.8
- Ligand-pharmacophore element distance, pharmacophore element O1 (Table A4-2, element O1): 0.39
- Ligand-pharmacophore element distance, pharmacophore element O2 (Table A4-2, element O2): 0.58
- Ligand-pharmacophore element distance, pharmacophore element O3 (Table A4-2, element O3): 0
- Ligand-pharmacophore element distance, pharmacophore element O4 (Table A4-2, element O4): 0
- d(CA1,N1) [1]: 3.60
- d(CA1,O1) [1]: 4.47
- d(CA1,O2) [1]: 4.37
- d(H4,O1) [1]: 5.00
- d(H4,O2) [1]: 4.63
- d(O1,O2) [1]: 3.49
- d(CA5,N2) [2]: 5.54
- d(N2,C2) [2]: 2.76
- d(O2,H3) [2]: 2.83
- d(O2,N2) [2]: 3.19
- a(CA1, O1, O2) (Table A6-1 pharmacophore angle): 111.77
- a(O1, O2, H4) (Table A6-1 pharmacophore angle): 137.67
- A(N1, CA1, O1) a) (Table A6-1 pharmacophore angle, all compounds with protonatable center N1 except Methyl-amino-pyridine): 164.78
- a(O1, O2, H3) (Table A6-2 pharmacophore angle): 122.63
- a(O1, O2, N2) (Table A6-2 pharmacophore angle): 127.76
- a(O2, N2, C2) (Table A6-2 pharmacophore angle): 110.31
- Pharmacophore torsion angle a(H4, O1, O2, H3) [3]: 104.70
- Pharmacophore torsion angle a(H4, O1, O2, N2) [3]: 133.45
- Pharmacophore torsion angle a(N1, CA1, O2, H4) [3]: −139.56
- Pharmacophore torsion angle a(O1, H4, O2, CA1) [3]: −65.27
- Pharmacophore torsion angle a(O1, O2, N2, C2) [3]: 95.54
- Pharmacophore torsion angle a(O1, O2, N2, CA5) [4]: 145.95
- Pharmacophore protein distance to MET_658 (first MET_658 column): 2.85
- Pharmacophore protein distance to MET_658 (second MET_658 column): 3.11
- Pharmacophore protein distance to GLY_528: 3.51
- Pharmacophore protein distance to PHE_529: 2.98
- Pharmacophore protein distance to PRO_608: 4.05
- Pharmacophore protein distance to SER_611: 2.58
- Pharmacophore protein distance to TRP_655: 3.31
SMILES: N=C(N)c1ccc(CNC(=O)[C@@H]2CCN2C(=O)[C@H](NCC(=O)O)C2Cc3ccccc3C2)cc1 [compound 1129]

- H-bond distance to MASP-2 ASP 627 atom OD2 (Table A1 (H-Bonds), ASP 627 OD2): 2.96
- H-bond distance to MASP-2 GLY 656 atom N (Table A1 (H-Bonds)): 3.22
- H-bond distance to MASP-2 SER 628 atom O (Table A1 (H-Bonds)): 2.9
- H-bond distance to MASP-2 SER 657 atom O (Table A1 (H-Bonds)): 2.93
- van der Waals contact distance, MASP-2 HIS 483 atom CD2 (Table A2-1): 3.81
- van der Waals contact distance, MASP-2 PHE 529 atom CE2 (Table A2-3): 3.72
- van der Waals contact distance TRP 655 atom N (Table A2-13, MASP-2 TRP 655 N): 3.58
- van der Waals contact distance GLY 656 atom O (Table A2-14, MASP-2 GLY 656 O): 3.55
- van der Waals contact distance SER 657 atom C (Table A2-14, MASP-2 SER 657 C, columns c12-c13 (inferred)): 3.57
SMILES: C[C@H](NC(=O)[C@H]1C[C@H](c2ccccc2)CN1)C(=O)NCc1ccc(C(=N)N)cc1 [compound 1036]
